The text below walks through data of US20050209278A1, “Piperidinyl- and piperazinyl-sulfonylmethyl hydroxamic acids and their use as protease inhibitors” (priority 2002, published 2005).

SMILES strings stand for the structures. Values joined by “and” are separate entries in the source; they are usually repeats but may differ in a detail not shown here. Equal values may be shown once.

The target of one experiment is T1, MMP-14 (Homo sapiens, UniProt P50281).
T1 construct: The catalytic domain enzyme was expressed in E. coli inclusion bodies, solubilized in urea; made in house
The experiment in a line: In vitro MMP inhibition, Ki determination (fluorogenic substrate II). As to conditions: value outside parentheses; read-out: MMP-14 Ki. The experiment is classed as biochemical. In outline:
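E. coli-expressed, refolded MMP-14 catalytic domain, activated with APMA or trypsin, in 100 mM Tris-HCl pH 7.5, 100 mM NaCl, 10 mM CaCl2, 0.05% Brij-type detergent. Apparent Ki by Morrison-equation regression of velocity vs inhibitor and enzyme concentration.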

The target in the next experiment is T2, MMP-1 (Homo sapiens, UniProt P03956).
T2 construct: made in house; host or cells: MMP-1-transfected HT-1080 cells (spent media)
T2 sequence (P03956 100-469): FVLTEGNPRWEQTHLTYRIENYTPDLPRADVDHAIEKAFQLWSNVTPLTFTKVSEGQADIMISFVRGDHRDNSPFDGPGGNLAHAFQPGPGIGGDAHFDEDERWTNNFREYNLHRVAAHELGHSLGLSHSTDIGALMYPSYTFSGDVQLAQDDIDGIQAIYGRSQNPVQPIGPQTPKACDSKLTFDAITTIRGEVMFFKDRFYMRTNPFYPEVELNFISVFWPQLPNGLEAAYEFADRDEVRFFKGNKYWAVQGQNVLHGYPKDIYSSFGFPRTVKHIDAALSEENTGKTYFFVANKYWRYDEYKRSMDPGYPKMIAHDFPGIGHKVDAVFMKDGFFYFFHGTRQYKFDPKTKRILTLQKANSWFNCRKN
Described as above. The conditions noted are these: value outside parentheses; read-out: MMP-1 Ki. It counts as biochemical.

As usually defined, the Ki is the dissociation constant of the complex between target and ligand, obtained from inhibition or displacement. Consider `CCc1ccc(C2CCN(S(=O)(=O)C3(C(=O)NO)CCN(CCOC)CC3)CC2)s1` [Example 314], for which the Ki at MMP-14 is 1.31 µM; at MMP-1, greater than 10 µM.

`O=C(NO)C1(S(=O)(=O)N2CCC(N3CCN(c4ccc(Cl)cc4)CC3)CC2)CCOCC1` [Example 315]: the Ki at MMP-14 and on MMP-1 was greater than 10 µM in each case.

Turning to `O=C(NO)C1(S(=O)(=O)N2CCN(c3ccc(-c4ccc(F)cc4F)cn3)CC2)CCOCC1` [Example 316], the results for the inhibition constant (Ki) at MMP-14 and at MMP-1 were 0.91 µM and 5.52 µM, respectively.

As to `O=C(NO)C1(S(=O)(=O)N2CCN(c3ccc(-c4ccccc4F)cn3)CC2)CCOCC1` [Example 317], the figures for the Ki at MMP-14 and on MMP-1 were 0.653 µM and 2.41 µM, respectively.

As to `COc1ccccc1-c1ccc(N2CCN(S(=O)(=O)C3(C(=O)NO)CCOCC3)CC2)nc1` [Example 318], the Ki at MMP-14 was 1.49 µM; at MMP-1, greater than 10 µM.

Consider `O=C(NO)C1(S(=O)(=O)N2CCN(c3ccc(-c4cccc(OC(F)(F)F)c4)cn3)CC2)CCOCC1` [Example 319], for which the inhibition constant (Ki) on MMP-14 and at MMP-1 was greater than 10 µM each time.

In the case of `O=C(NO)C1(S(=O)(=O)N2CCN(c3ccc(CCCC(F)(F)F)cc3)CC2)CCOCC1` [Example 320], the Ki is 3.93 µM at MMP-14 and greater than 10 µM on MMP-1.

`O=C(NO)C1(S(=O)(=O)N2CCN(c3cnn(CCCC(F)(F)F)c(=O)c3)CC2)CCOCC1` [Example 321]: the Ki on MMP-14 and on MMP-1 was greater than 10 µM throughout.

On to `O=C(NO)C1(S(=O)(=O)N2CCN(c3cnn(-c4ccccc4)c(=O)c3)CC2)CCOCC1` [Example 322], for which the inhibition constant (Ki) on MMP-14 and at MMP-1 was greater than 10 µM in each case.

Turning to `CCCCc1ccc(C2CCN(S(=O)(=O)C3(C(=O)NO)CCOCC3)CC2)nc1` [Example 323], the results for the Ki on MMP-14 and at MMP-1 were 1.29 µM and 6.21 µM, respectively.

For the molecule `COC(=O)c1ccc(N2CCN(S(=O)(=O)C3(C(=O)NO)CCOCC3)CC2)cc1` [Example 324], the inhibitory constant (Ki) at MMP-14 was found to be 1.15 µM; on MMP-1 it was 1.86 µM.

Consider `CCCCOc1ccc(N2CCN(S(=O)(=O)C3(C(=O)NO)CCN(CCOC)CC3)CC2)nc1` [Example 325], for which the inhibition constant (Ki) stood at 0.912 µM on MMP-14 and 7.51 µM on MMP-1.

Take `O=C(NO)C1(S(=O)(=O)N2CCN(c3ccc(OCC(F)(F)C(F)F)cc3)CC2)CCOCC1` [Example 326]: the inhibition constant Ki worked out at 2.43 µM at MMP-14 and 6.58 µM on MMP-1.

Consider `O=C(NO)C1(S(=O)(=O)N2CCN(c3ccc(-c4ccc(OC(F)(F)F)cc4)cc3)CC2)CCOCC1` [Example 327], for which the figures for the Ki at MMP-14 and on MMP-1 were 1.37 µM and 7.3 µM, respectively.

Consider `O=C(NO)C1(S(=O)(=O)N2CCN(c3ccc(-c4ccc(Cl)c(Cl)c4)cc3)CC2)CCOCC1` [Example 328], for which the Ki on MMP-14 is 2.69 µM; at MMP-1, 3.72 µM.

Turning to `O=C(NO)C1(S(=O)(=O)N2CCN(c3cnn(-c4ccccc4)c(=O)c3Cl)CC2)CCOCC1` [Example 329], the Ki on MMP-14 and on MMP-1 was greater than 10 µM throughout.

For the molecule `O=C(NO)C1(S(=O)(=O)N2CCC(c3ccc(OCC(F)(F)C(F)(F)F)cc3)CC2)CCOCC1` [Example 330], the Ki on MMP-14 was greater than 10 µM; at MMP-1, 5.36 µM.

For `O=C(NO)C1(S(=O)(=O)N2CCN(c3ccc(Br)cn3)CC2)CCOCC1` [Example 331], the Ki was 0.0135 µM at MMP-14 and 0.279 µM at MMP-1.

With `COCCN1CCC(C(=O)NO)(S(=O)(=O)N2CCN(c3ncccn3)CC2)CC1` [Example 332], the Ki on MMP-14 is greater than 10 µM; at MMP-1 it was 5.11 µM.

As for `O=C(NO)C1(S(=O)(=O)N2CCN(c3ccc(OCC4CC4)c(F)c3)CC2)CCOCC1` [Example 333], the inhibition constant (Ki) is 2.36 µM at MMP-14 and greater than 10 µM at MMP-1.

Regarding `CCCCc1cnc(N2CCN(S(=O)(=O)C3(C(=O)NO)CCN(CCOC)CC3)CC2)nc1` [Example 334], the figures for the Ki at MMP-14 and on MMP-1 were 5.77 µM and greater than 10 µM, respectively.

For the molecule `O=C(NO)C1(S(=O)(=O)N2CCN(c3ccc(CCC(F)(F)C(F)(F)F)cc3)CC2)CCN(C2CC2)CC1` [Example 335], the Ki is 9.29 µM on MMP-14 and greater than 10 µM at MMP-1.

As to `O=C(NO)C1(S(=O)(=O)N2CCN(c3ccc(OCC(F)(F)C(F)F)cc3)CC2)CCOCC1` [Example 336], the figures for the inhibition constant Ki at MMP-14 and on MMP-1 were 2.52 µM and 2.64 µM, respectively.

`O=C(NO)C1(S(=O)(=O)N2CCC(c3ccc(OC(F)(F)C(F)F)cc3)CC2)CCOCC1` [Example 337]: the Ki on MMP-14 was 1.61 µM; at MMP-1, 3.29 µM.

Take `O=C(NO)C1(S(=O)(=O)N2CCC(c3ccc(CCCC(F)(F)F)cn3)CC2)CCOCC1` [Example 338]: the inhibition constant (Ki) on MMP-14 worked out at 1.33 µM; at MMP-1, 9.86 µM.

For `O=C(NO)C1(S(=O)(=O)N2CCC(c3ccc(CCC(F)(F)C(F)(F)F)cn3)CC2)CCOCC1` [Example 340], the Ki turned out to be 1.3 µM on MMP-14 and 5.86 µM on MMP-1.

Regarding `CCN1CCC(C(=O)NO)(S(=O)(=O)N2CCN(c3ccc(-c4ccccc4)c(F)c3)CC2)CC1` [Example 341], the results for the inhibition constant (Ki) at MMP-14 and on MMP-1 were 4.3 µM and greater than 10 µM, respectively.

Regarding `O=C(NO)C1(S(=O)(=O)N2CCN(c3ccc(OCCCC(F)(F)F)cc3)CC2)CC(O)C1` (stereo not shown) [Example 342], the Ki on MMP-14 and on MMP-1 was greater than 10 µM each time.

Regarding `O=C(NO)C1(S(=O)(=O)N2CCN(c3ncc(-c4ccc(Cl)cc4)s3)CC2)CCOCC1` [Example 343], the Ki at MMP-14 was determined as 0.0349 µM; at MMP-1 it was 5.25 µM.

Turning to `Cc1ccc(-c2cnc(N3CCN(S(=O)(=O)C4(C(=O)NO)CCOCC4)CC3)s2)cc1` [Example 344], the inhibition constant Ki was 0.075 µM on MMP-14 and 3.52 µM at MMP-1.

`O=C(NO)C1(S(=O)(=O)N2CCN(c3ncc(-c4ccc(F)cc4)s3)CC2)CCOCC1` [Example 345]: the inhibition constant Ki is 0.0381 µM on MMP-14 and 5.54 µM at MMP-1.

For `O=C(NO)C1(S(=O)(=O)N2CCN(c3ncc(-c4ccc(C(F)(F)F)cc4)s3)CC2)CCOCC1` [Example 346], the Ki turned out to be 0.114 µM at MMP-14 and 5.69 µM at MMP-1.

Consider `CC(C)(C)c1ccc(-c2cnc(N3CCN(S(=O)(=O)C4(C(=O)NO)CCOCC4)CC3)s2)cc1` [Example 347], for which the Ki at MMP-14 stood at 0.0846 µM; at MMP-1, 2.77 µM.

Regarding `Cc1ccccc1-c1cnc(N2CCN(S(=O)(=O)C3(C(=O)NO)CCOCC3)CC2)s1` [Example 348], the Ki at MMP-14 was 0.65 µM; on MMP-1 it was greater than 10 µM.

For `O=C(NO)C1(S(=O)(=O)N2CCC(c3ccc(OC(F)(F)C(F)(F)F)cc3)CC2)CCOCC1` [Example 349], the inhibition constant Ki at MMP-14 and at MMP-1 was greater than 10 µM each time.

For the molecule `O=C(NO)C1(S(=O)(=O)N2CCC(c3ccc(OCC(F)(F)C(F)F)cc3)CC2)CCN(C2CC2)CC1` [Example 350], the figures for the inhibitory constant (Ki) on MMP-14 and on MMP-1 were 4.47 µM and greater than 10 µM, respectively.

As to `O=C(NO)C1(S(=O)(=O)N2CCC(c3ccc(CCCC(F)(F)F)cc3)CC2)CCN(C2CC2)CC1` [Example 351], the figures for the Ki at MMP-14 and at MMP-1 were 4.74 µM and greater than 10 µM, respectively.

Turning to `O=C(O)c1ccc(N2CCN(S(=O)(=O)C3(C(=O)NO)CCOCC3)CC2)cc1` [Example 352], the Ki on MMP-14 and on MMP-1 was greater than 10 µM throughout.

`O=C(NO)C1(S(=O)(=O)N2CCC(c3ccc(CCCC(F)(F)F)cc3)CC2)CCOCC1` [Example 353]: the results for the Ki at MMP-14 and on MMP-1 were 2.71 µM and 8.58 µM, respectively.

Regarding `CCCCOc1cccc(N2CCN(S(=O)(=O)C3(C(=O)NO)CCOCC3)CC2)c1` [Example 354], the Ki at MMP-14 was 4.14 µM; on MMP-1 it was greater than 10 µM.

Turning to `O=C(NO)C1(S(=O)(=O)N2CCN(c3cccc(OCCCC(F)(F)F)c3)CC2)CCOCC1` [Example 355], the figures for the Ki at MMP-14 and at MMP-1 were 3.44 µM and greater than 10 µM, respectively.

As to `CCCCCc1cccc(N2CCN(S(=O)(=O)C3(C(=O)NO)CCOCC3)CC2)c1` [Example 356], the values for the inhibition constant Ki on MMP-14 and at MMP-1 were 3.42 µM and greater than 10 µM, respectively.

Consider `O=C(NO)C1(S(=O)(=O)N2CCC(c3ccc(OCC(F)(F)F)cc3)CC2)CCOCC1` [Example 357], for which the results for the inhibition constant Ki at MMP-14 and at MMP-1 were 2.29 µM and 3.78 µM, respectively.

Consider `O=C(NO)C1(S(=O)(=O)N2CCN(c3ccc(CCCC(F)(F)F)cn3)CC2)CCOCC1` [Example 358], for which the inhibitory constant (Ki) was 2.95 µM at MMP-14 and greater than 10 µM at MMP-1.

Take `O=C(NO)C1(S(=O)(=O)N2CCN(c3ncc(-c4ccc(F)cc4F)s3)CC2)CCOCC1` [Example 359]: the inhibition constant (Ki) was 0.0429 µM on MMP-14 and 2.6 µM on MMP-1.

As to `O=C(NO)C1(S(=O)(=O)N2CCN(c3ncc(-c4ccc(-c5ccccc5)cc4)s3)CC2)CCOCC1` [Example 360], the figures for the Ki at MMP-14 and at MMP-1 were 0.216 µM and greater than 2.5 µM, respectively.

Consider `O=C(NO)C1(S(=O)(=O)N2CCN(c3ncc(/C=C/c4ccccc4)s3)CC2)CCOCC1` [Example 361], for which the Ki is 0.497 µM and 0.46 µM at MMP-14; greater than 2.5 µM on MMP-1.

As for `O=C(NO)C1(S(=O)(=O)N2CCN(c3ncc(-c4ccc5c(c4)OCO5)s3)CC2)CCOCC1` [Example 362], the Ki at MMP-14 came out at 0.15 µM; at MMP-1, 2.12 µM.

Turning to `O=C(NO)C1(S(=O)(=O)N2CCN(c3ncc(-c4ccc([N+](=O)[O-])cc4)s3)CC2)CCOCC1` [Example 363], the inhibition constant Ki at MMP-14 is 0.0278 µM; on MMP-1 it was 2.35 µM.

Take `O=C(NO)C1(S(=O)(=O)N2CCN(c3ncc(-c4ccc(OC(F)(F)F)cc4)s3)CC2)CCOCC1` [Example 364]: the Ki at MMP-14 worked out at 0.0697 µM; at MMP-1 it was 3.94 µM.
